Calls of active or inactive are those of the source. No cut-off for these calls is given here.
Key:
[1] = biological target: T1, Prostaglandin G/H synthase 1 (Ovis aries) (UniProt P05979); assay: Inhibition of ovine COX1 using arachidonic acid as substrate at 10 uM incubated 5 mins prior to substrate addition measured after 5 mins by HPLC analysis
T1 sequence (whole entry): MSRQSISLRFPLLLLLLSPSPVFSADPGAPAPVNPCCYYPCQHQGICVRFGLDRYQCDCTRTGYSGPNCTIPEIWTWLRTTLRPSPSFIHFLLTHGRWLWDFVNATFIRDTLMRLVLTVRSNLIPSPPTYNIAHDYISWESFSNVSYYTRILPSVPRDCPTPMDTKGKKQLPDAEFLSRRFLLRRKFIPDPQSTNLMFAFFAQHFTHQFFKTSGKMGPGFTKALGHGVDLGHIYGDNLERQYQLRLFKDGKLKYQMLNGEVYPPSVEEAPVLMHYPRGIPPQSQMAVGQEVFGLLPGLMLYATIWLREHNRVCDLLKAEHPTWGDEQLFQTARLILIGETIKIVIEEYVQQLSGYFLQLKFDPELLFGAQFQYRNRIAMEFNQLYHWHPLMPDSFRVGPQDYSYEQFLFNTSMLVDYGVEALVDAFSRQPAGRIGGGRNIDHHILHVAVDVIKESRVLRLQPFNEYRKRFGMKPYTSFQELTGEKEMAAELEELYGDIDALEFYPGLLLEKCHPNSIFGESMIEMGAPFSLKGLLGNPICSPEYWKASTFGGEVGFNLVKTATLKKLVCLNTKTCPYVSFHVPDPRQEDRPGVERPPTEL

[2] = Cytotoxicity against human polymorphonuclear leukocytes at 10 uM after 1 hr by trypan blue staining
[3] = biological target: T2, Polyunsaturated fatty acid 5-lipoxygenase (Homo sapiens, UniProt P09917); assay: Inhibition of 5-lipoxygenase in A23187-stimulated human polymorphonuclear leukocytes using arachidonic acid as substrate incubated 15 mins prior to substrate addition measured after 10 mins by HPLC analysis
T2 sequence (P09917 whole entry): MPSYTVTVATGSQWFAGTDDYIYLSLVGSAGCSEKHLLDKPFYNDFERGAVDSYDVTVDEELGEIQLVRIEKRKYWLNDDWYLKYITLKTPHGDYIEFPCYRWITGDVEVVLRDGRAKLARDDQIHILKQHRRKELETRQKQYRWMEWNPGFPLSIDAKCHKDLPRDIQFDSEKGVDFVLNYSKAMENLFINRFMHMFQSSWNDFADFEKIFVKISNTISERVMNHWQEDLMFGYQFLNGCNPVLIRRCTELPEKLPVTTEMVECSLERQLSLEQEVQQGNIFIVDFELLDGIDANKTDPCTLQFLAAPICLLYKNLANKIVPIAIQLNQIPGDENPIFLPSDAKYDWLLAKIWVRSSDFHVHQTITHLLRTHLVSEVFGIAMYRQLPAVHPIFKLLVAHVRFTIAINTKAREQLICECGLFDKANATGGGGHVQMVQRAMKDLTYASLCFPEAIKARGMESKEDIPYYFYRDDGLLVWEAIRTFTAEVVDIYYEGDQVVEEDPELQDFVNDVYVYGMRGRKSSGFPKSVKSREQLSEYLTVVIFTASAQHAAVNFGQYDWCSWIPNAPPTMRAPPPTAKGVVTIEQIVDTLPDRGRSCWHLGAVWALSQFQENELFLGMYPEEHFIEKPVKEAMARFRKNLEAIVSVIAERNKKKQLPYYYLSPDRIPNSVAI

Mus musculus [4] = assay: Reduction of 6-keto […] formation in CD-1 mouse peritonitis model at 10 mg/kg, ip administered 30 mins prior to zymosan-challenge measured after 4 hrs by EIA (reference value: 3.89 +/- 0.58 ng/ml); format: functional, organism-based; parameters: dose 10 mg/kg
[5] = biological target: T3, Polyunsaturated fatty acid lipoxygenase ALOX15 (Homo sapiens) (UniProt P16050); assay: Inhibition of 15-lipoxygenase in human polymorphonuclear leukocytes using arachidonic acid as substrate assessed as remaining activity at 10 uM incubated 15 mins prior to substrate addition measured after 10 mins by HPLC analysis relative to control; format: cell-based
T3 sequence (whole entry): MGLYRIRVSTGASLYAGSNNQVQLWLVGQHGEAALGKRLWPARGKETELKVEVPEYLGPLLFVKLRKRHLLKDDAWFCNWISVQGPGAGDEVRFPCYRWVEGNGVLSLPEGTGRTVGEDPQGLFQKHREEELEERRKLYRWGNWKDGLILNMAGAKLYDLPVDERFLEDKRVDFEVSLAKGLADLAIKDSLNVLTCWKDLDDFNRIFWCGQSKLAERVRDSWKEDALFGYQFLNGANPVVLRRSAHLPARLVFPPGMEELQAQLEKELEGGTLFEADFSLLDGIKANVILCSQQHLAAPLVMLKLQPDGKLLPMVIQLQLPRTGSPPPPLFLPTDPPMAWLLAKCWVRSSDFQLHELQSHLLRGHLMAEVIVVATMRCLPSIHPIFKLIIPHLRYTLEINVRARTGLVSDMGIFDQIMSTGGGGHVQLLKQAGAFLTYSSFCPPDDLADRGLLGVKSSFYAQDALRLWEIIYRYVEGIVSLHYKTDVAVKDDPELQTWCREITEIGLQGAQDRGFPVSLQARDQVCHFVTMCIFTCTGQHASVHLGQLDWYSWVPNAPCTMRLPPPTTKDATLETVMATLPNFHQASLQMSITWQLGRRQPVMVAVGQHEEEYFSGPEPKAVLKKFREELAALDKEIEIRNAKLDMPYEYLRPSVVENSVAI

Mus musculus [6] = assay: Antiinflammatory activity in CD-1 mouse peritonitis model assessed as reduction in myeloperoxidase activity at 10 mg/kg, ip administered 30 mins prior to zymosan-challenge measured after 4 hrs by spectrophotometry relative to vehicle-treated control; format: functional; conditions: CD-1, ip, route intraperitoneal
Mus musculus [7] = assay: Antiinflammatory activity in CD-1 mouse peritonitis model assessed as reduction in neutrophil infiltration at 10 mg/kg, ip administered 30 mins prior to zymosan-challenge measured after 4 hrs by spectrophotometry relative to vehicle-treated control; format: functional; conditions: CD-1, ip, route intraperitoneal
Mus musculus [8] = assay: Antiinflammatory activity in CD-1 mouse peritonitis model assessed as reduction in vascular permeability at 10 mg/kg, ip administered 30 mins prior to zymosan-challenge measured after 4 hrs relative to vehicle-treated control; format: functional; conditions: CD-1, ip, route intraperitoneal
Mus musculus [9] = assay: Reduction of LTC4 formation in CD-1 mouse peritonitis model at 10 mg/kg, ip administered 30 mins prior to zymosan-challenge measured after 30 mins by EIA relative to vehicle-treated control; format: functional; conditions: CD-1, ip, route intraperitoneal
Homo sapiens [10] = species on record: Homo sapiens; assay: Translocation of 5-lipoxygenase from cytosol into nuclear membrane in A23187-stimulated human polymorphonuclear leukocytes assessed as enzyme product formation at 10 uM incubated for 15 mins prior to A23187-challenge measured after 5 mins by Western blotting analysis; format: functional
[11] = (§1) Inhibition of reactive oxygen species generation in PMA-stimulated human polymorphonuclear leukocytes incubated for 15 mins prior to PMA-challenge by fluorescence assay; format: functional
Homo sapiens [12] = species on record: Homo sapiens; assay: as §1; format: functional

- inhibition [1]: 39%
- IC50 [3]: 0.2 µM
- Activity [5]: 84%
- IC50 [11]: 8 µM
SMILES: CCCCCCC(Sc1nc(Cl)cc(Nc2nc(-c3ccc4ccccc4c3)cs2)n1)C(=O)O (racemic)
- Activity [2]: Non-toxic
- inhibition (Mus musculus [4]): inactive
- inhibition in vivo at 10 mg/kg (Mus musculus [6]): 23%
- inhibition in vivo at 10 mg/kg (Mus musculus [7]): 45%
- inhibition in vivo at 10 mg/kg (Mus musculus [8]): 57%
- inhibition in vivo at 10 mg/kg (Mus musculus [9]): 84%
- Activity (Homo sapiens [10]): inactive
- inhibition (Homo sapiens [12]): Dose-dependent effect

Source: ChEMBL document CHEMBL3091331, “Aminothiazole-featured pirinixic acid derivatives as dual 5-lipoxygenase and microsomal prostaglandin E2 synthase-1 inhibitors with improved potency and efficiency in vivo” (J Med Chem, 2013)
